Among the data in BindingDB's records for patent US20260001888 (Merck Sharp & Dohme, 2026) are Ki values, retold here.

Broadly, the Ki is the dissociation constant of the complex between target and ligand, obtained from inhibition or displacement.

In this assay the target is High affinity cGMP-specific 3',5'-cyclic phosphodiesterase 9A (Homo sapiens, UniProt O76083). Kind of assay: PDE9 Inhibitory Activity Assay. Here is the method:
Human PDE9 (PDE9A2, GenBank Accession No. NM_001001567), full length with N-terminal GST tag, was purchased from BPS Bioscience. The fluorescence polarization assay for cyclic nucleotide phosphodiesterases was performed using an IMAP FP kit supplied by Molecular Devices, Sunnyvale, CA (product #R8139). IMAP technology has been applied previously to phosphodiesterase assays (Huang, W., et al., J. Biomol Screen, 2002, 7:215). Assays were performed at room temperature in 384-well microtiter plates with an incubation volume of 20.2 μL. Solutions of test compounds were prepared in DMSO and serially diluted with DMSO to yield 8 μL of each of 10 solutions differing by 3-fold in concentration, at 32 serial dilutions per plate. 100% inhibition is determined using a known PDE9 inhibitor, such as 1-(2-chlorophenyl)-6-[(2R)-3,3,3-trifluoro-2-methylpropyl]-1,5-dihydro-4H-pyrazolo[3,4-d]pyrimidine-4-one (BAY 73-6691) (Wunder et al, Mol. Pharmacol., 2005, 68 (6): 1775-81), (6-[(3S,4S)-4-methyl-1-(pyrimidin-2-ylmethyl) pyrrolidin-3-yl]-1-(tetrahydro-2H-pyran-4-yl)-1,5-dihydro-4H-pyrazolo[3,4-d]pyrimidin-4-one (PF-04447943) (Wager et al., ACS Chemical Neuroscience, 2010, 1:435-449). 0% of inhibition is determined by using DMSO (1% final concentrations). A Labcyte Echo 555 (Labcyte, Sunnyvale, CA) is used to dispense 200 nL from each well of the titration plate to the 384 well assay plate. Human PDE9A2 membrane preps were diluted to 1 ng/ml. […] PDE9 enzyme mix and compounds were mixed and incubated at room temperature for 30 min. Following which, FAMcGMP substrate was added, shaken and incubated for an additional 60 min at room temperature. The final concentration of human PDE9 membrane preparations were 0.5 ng/ml. The final concentration of FAM-cGMP was 50 nM. After the incubation period, the enzymatic reaction was stopped by addition of binding solution (IMAP-FP, Molecular Devices, comprised of 80% Solution A, 20% Solution B and a 1:600 dilution of binding reagent) to each well. The plates were shaken then incubated at room temperature for 1 h prior to determining the fluorescence polarization (mP) using a Perkin Elmer En Vision™ plate reader (Waltham, MA).

Sequence of High affinity cGMP-specific 3',5'-cyclic phosphodiesterase 9A (O76083 whole entry): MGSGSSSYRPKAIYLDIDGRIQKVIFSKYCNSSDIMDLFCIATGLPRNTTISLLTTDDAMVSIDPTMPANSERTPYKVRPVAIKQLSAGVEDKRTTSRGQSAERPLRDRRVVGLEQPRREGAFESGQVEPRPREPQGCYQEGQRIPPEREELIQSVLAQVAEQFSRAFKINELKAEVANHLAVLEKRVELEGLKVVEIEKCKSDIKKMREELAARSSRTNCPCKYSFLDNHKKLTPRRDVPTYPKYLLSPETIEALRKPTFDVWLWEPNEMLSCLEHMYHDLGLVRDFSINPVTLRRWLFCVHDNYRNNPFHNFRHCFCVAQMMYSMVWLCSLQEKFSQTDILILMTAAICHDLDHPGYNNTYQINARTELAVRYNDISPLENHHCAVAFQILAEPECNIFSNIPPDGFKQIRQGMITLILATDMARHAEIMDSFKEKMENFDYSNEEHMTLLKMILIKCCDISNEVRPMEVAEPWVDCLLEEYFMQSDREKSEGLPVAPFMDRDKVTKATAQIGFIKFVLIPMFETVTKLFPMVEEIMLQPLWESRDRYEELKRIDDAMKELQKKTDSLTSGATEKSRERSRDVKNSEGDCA

Take `CCC(c1ncc(OC(F)(F)F)cn1)N(C)c1nc2c(c(C#N)nn2C(C)c2ccc(C(F)(F)F)nc2)c(=O)[nH]1` (single isomer, unassigned; form 1) [US20260001888, Example 59]: the affinity corresponds to a Ki of 12.1 nM.

`CCC(c1ncc(OC(F)(F)F)cn1)N(C)c1nc2c(c(C#N)nn2C(C)c2ccc(C(F)(F)F)nc2)c(=O)[nH]1` (single isomer, unassigned; form 4) [US20260001888, Example 62]: the Ki was 50.7 nM.

`CCC(c1ncc(OC(F)(F)F)cn1)N(C)c1nc2c(c(C#N)nn2C(C)c2ccc(C(F)(F)F)nc2)c(=O)[nH]1` (single isomer, unassigned; form 3) [US20260001888, Example 61] gave a Ki of 0.17 nM.

For `CCC(c1ncc(OC(F)(F)F)cn1)N(C)c1nc2c(c(C#N)nn2C(C)c2ccc(C(F)(F)F)nc2)c(=O)[nH]1` (single isomer, unassigned; form 2) [US20260001888, Example 60], the Ki came to 1.06 nM.
